These results are taken from article PMC4363471, “Crystal Structure of Helicobacter pylori Pseudaminic Acid Biosynthesis N-Acetyltransferase PseH: Implications for Substrate Specificity and Catalysis” (PLoS ONE, 2015).

The target of the assay is T1, PseH (Helicobacter pylori, UniProt O25094).
T1 construct: recombinant; 21 kDa; homodimer
Nature of the assay: X-ray crystal structure ([…] Å, co-crystallization). The assay is classed as binding. To be noted: co-crystallized with 5 mM AcCoA; cofactor site between strands β4 and β5.

T1 sequence (O25094 whole entry): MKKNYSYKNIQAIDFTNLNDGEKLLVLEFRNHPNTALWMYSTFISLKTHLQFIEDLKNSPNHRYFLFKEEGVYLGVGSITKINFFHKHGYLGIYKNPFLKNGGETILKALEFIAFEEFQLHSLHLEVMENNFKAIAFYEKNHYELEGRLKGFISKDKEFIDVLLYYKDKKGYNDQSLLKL

On to `CC(=O)SCCNC(=O)CCNC(=O)[C@H](O)C(C)(C)COP(=O)(O)OP(=O)(O)OC[C@H]1O[C@@H](n2cnc3c(N)ncnc32)[C@H](O)[C@@H]1OP(=O)(O)O` [AcCoA], for which the “X-ray crystal structure (2.3 Å, co-crystallization)” value is given as “Analysis of the difference Fourier map revealed an AcCoA binding site between the splayed strands”.
